One compound from the NIST ThermoML archive (doi:10.1021/je060333x) can be followed below.

The series is described as follows: molar enthalpy of transition or fusion. Conditions: 352 K; Crystal; DSC.

± gives the expanded uncertainty stated by the source.

As to `OCCCCCCCCCCCCO` [1,12-dihydroxydodecane], the “molar enthalpy of transition or fusion” value turned out to be 12.2 ± 0.454 kcal/mol.
